Results on 5 cell lines are retold here after the supplement of paper PMC10307832.

What all share (experiment): relative viability (nuclei count vs DMSO), 5 days (fraction); higher = more cells survive
Compound in the assay “KN-93 + Crizotinib”: CN(C/C=C/C1=CC=C(C=C1)Cl)CC2=CC=CC=C2N(CCO)S(=O)(=O)C3=CC=C(C=C3)OC [KN-93] + C[C@@H](Oc1cc(-c2cnn(C3CCNCC3)c2)cnc1N)c1c(Cl)ccc(F)c1Cl [Crizotinib] (partner 1 µM)
In short, it runs like this: (§1)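 One day after seeding in 1536-well plates, lung cancer cell lines were dosed by pin tool. Dosing was either single-drug or a fixed anchor-drug dose plus five library-drug doses (not always all listed) in √10 steps. After 5 days, nuclei were stained in one fix-and-stain step and counted on 4× images, and relative viability is the nuclei count of treated wells over that of vehicle wells, given as the median of duplicate plates.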

Compound in the assay “KN-93 + Dasatinib”: CN(C/C=C/C1=CC=C(C=C1)Cl)CC2=CC=CC=C2N(CCO)S(=O)(=O)C3=CC=C(C=C3)OC [KN-93] + Cc1nc(Nc2ncc(C(=O)Nc3c(C)cccc3Cl)s2)cc(N2CCN(CCO)CC2)n1 [Dasatinib] (partner 0.075 µM)
In short, it runs like this:
as §1

Compound in the assay “KN-93 + Olaparib”: CN(C/C=C/C1=CC=C(C=C1)Cl)CC2=CC=CC=C2N(CCO)S(=O)(=O)C3=CC=C(C=C3)OC [KN-93] + O=C(c1cc(Cc2n[nH]c(=O)c3ccccc23)ccc1F)N1CCN(C(=O)C2CC2)CC1 [Olaparib] (partner 8 µM)
In outline: as §1

Compound in the assay “KN-93 + Alpelisib”: CN(C/C=C/C1=CC=C(C=C1)Cl)CC2=CC=CC=C2N(CCO)S(=O)(=O)C3=CC=C(C=C3)OC [KN-93] + Cc1nc(NC(=O)N2CCC[C@H]2C(N)=O)sc1-c1ccnc(C(C)(C)C(F)(F)F)c1 [Alpelisib] (partner 2 µM)
In outline: as §1

Compound in the next assay: CN(C/C=C/C1=CC=C(C=C1)Cl)CC2=CC=CC=C2N(CCO)S(=O)(=O)C3=CC=C(C=C3)OC [KN-93]
In outline: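 A plate was accepted only when its control CV was below 25% and the cells had doubled at least once. Viability is defined from nuclear counts as treated wells divided by vehicle wells, with the median taken across plates. That median covers lung cancer cell lines grown in 1536-well plates, dosed by pinning at five √10-spaced library-drug concentrations, and counted in MetaXpress from 4× Hoechst images after 5 days.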

Take NCI-H2228: the relative viability came to 0.445 with KN-93 + Crizotinib (first compound 0.08 µM); 0.48 with KN-93 + Crizotinib (first compound 0.253 µM); 0.526 in the assay with KN-93 + Crizotinib (first compound 2.53 µM); 0.248 in the assay with KN-93 + Crizotinib (first compound 8 µM); 0.597 with KN-93 + Dasatinib (first compound 0.08 µM); 0.541 in the assay with KN-93 + Dasatinib (first compound 0.253 µM). In addition, the relative viability was 0.631 with KN-93 + Dasatinib (first compound 2.53 µM); 0.326 with KN-93 + Dasatinib (first compound 8 µM); 0.617 in the assay with KN-93 + Olaparib (first compound 0.08 µM); 0.611 with KN-93 + Olaparib (first compound 0.253 µM); 0.8 with KN-93 + Olaparib (first compound 2.53 µM); 0.269 with KN-93 + Olaparib (first compound 8 µM). For the same cell line, the relative viability with KN-93 + Alpelisib (first compound 0.08 µM) came out at 0.704; with KN-93 + Alpelisib (first compound 0.253 µM), 0.553; with KN-93 + Alpelisib (first compound 2.53 µM) it was 0.722; with KN-93 + Alpelisib (first compound 8 µM) it was 0.236; with KN-93 (0.08 µM) it was 0.904; with KN-93 (0.253 µM) it was 1.27. For the same cell line, the relative viability in the assay with KN-93 (2.53 µM) was 1.41; with KN-93 (8 µM) it was 0.711.

NCI-H2347: the relative viability was found to be 0.686 in the assay with KN-93 + Crizotinib (first compound 0.08 µM); 0.731 with KN-93 + Crizotinib (first compound 0.253 µM); 0.739 in the assay with KN-93 + Crizotinib (first compound 2.53 µM); 0.463 with KN-93 + Crizotinib (first compound 8 µM); 0.322 with KN-93 + Dasatinib (first compound 0.08 µM); 0.273 with KN-93 + Dasatinib (first compound 0.253 µM). Moreover, the relative viability was determined as 0.288 in the assay with KN-93 + Dasatinib (first compound 2.53 µM); 0.245 with KN-93 + Dasatinib (first compound 8 µM); 0.491 in the assay with KN-93 + Olaparib (first compound 0.08 µM); 0.59 with KN-93 + Olaparib (first compound 0.253 µM); 0.606 in the assay with KN-93 + Olaparib (first compound 2.53 µM); 0.497 with KN-93 + Olaparib (first compound 8 µM). Further, the relative viability was 1 with KN-93 + Alpelisib (first compound 0.08 µM); 1.09 with KN-93 + Alpelisib (first compound 0.253 µM); 1.07 with KN-93 + Alpelisib (first compound 2.53 µM); 0.764 in the assay with KN-93 + Alpelisib (first compound 8 µM); 1.03 in the assay with KN-93 (0.08 µM); 1.11 with KN-93 (0.253 µM). Further, the relative viability with KN-93 (2.53 µM) is 1.08; with KN-93 (8 µM), 0.797.

Consider NCI-H2405, for which the relative viability with KN-93 + Crizotinib (first compound 0.08 µM) was 0.853; with KN-93 + Crizotinib (first compound 0.253 µM) it was 0.832; in the assay with KN-93 + Crizotinib (first compound 2.53 µM), 0.873; with KN-93 + Crizotinib (first compound 8 µM), 0.665; with KN-93 + Dasatinib (first compound 0.08 µM), 0.222; with KN-93 + Dasatinib (first compound 0.253 µM) it was 0.238. The relative viability is 0.491 in the assay with KN-93 + Dasatinib (first compound 2.53 µM); 0.204 in the assay with KN-93 + Dasatinib (first compound 8 µM); 0.937 in the assay with KN-93 + Olaparib (first compound 0.08 µM); 0.798 with KN-93 + Olaparib (first compound 0.253 µM); 0.916 in the assay with KN-93 + Olaparib (first compound 2.53 µM); 0.693 with KN-93 + Olaparib (first compound 8 µM). Moreover, the relative viability was 0.831 with KN-93 + Alpelisib (first compound 0.08 µM); 0.732 with KN-93 + Alpelisib (first compound 0.253 µM); 0.766 with KN-93 + Alpelisib (first compound 2.53 µM); 0.526 in the assay with KN-93 + Alpelisib (first compound 8 µM); 1.03 in the assay with KN-93 (0.08 µM); 1.02 with KN-93 (0.253 µM). In addition, the relative viability was determined as 1.03 in the assay with KN-93 (2.53 µM) and 0.728 with KN-93 (8 µM).

In the case of NCI-H3122, the relative viability in the assay with KN-93 + Crizotinib (first compound 0.08 µM) was determined as 0.287; in the assay with KN-93 + Crizotinib (first compound 0.253 µM), 0.31; with KN-93 + Crizotinib (first compound 2.53 µM), 0.299; with KN-93 + Crizotinib (first compound 8 µM), 0.264; in the assay with KN-93 + Dasatinib (first compound 0.08 µM), 0.716; in the assay with KN-93 + Dasatinib (first compound 0.253 µM), 0.824. Further, the relative viability in the assay with KN-93 + Dasatinib (first compound 2.53 µM) was 1.12; with KN-93 + Dasatinib (first compound 8 µM) it was 0.661; with KN-93 + Olaparib (first compound 0.08 µM), 0.491; with KN-93 + Olaparib (first compound 0.253 µM) it was 0.571; with KN-93 + Olaparib (first compound 2.53 µM), 0.763; with KN-93 + Olaparib (first compound 8 µM), 0.53. The relative viability in the assay with KN-93 + Alpelisib (first compound 0.08 µM) was determined as 0.829; in the assay with KN-93 + Alpelisib (first compound 0.253 µM) it was 0.659; with KN-93 + Alpelisib (first compound 2.53 µM), 0.766; with KN-93 + Alpelisib (first compound 8 µM) it was 0.585; with KN-93 (0.08 µM) it was 0.972; with KN-93 (0.253 µM), 1.02. Moreover, the results for the relative viability with KN-93 (2.53 µM) and with KN-93 (8 µM) were 1.07 and 0.931, respectively.

Take PC-3 [JPC-3]: the relative viability is 0.953 in the assay with KN-93 + Crizotinib (first compound 0.08 µM); 1.2 with KN-93 + Crizotinib (first compound 0.253 µM); 1.06 with KN-93 + Crizotinib (first compound 2.53 µM); 0.886 with KN-93 + Crizotinib (first compound 8 µM); 0.941 with KN-93 + Dasatinib (first compound 0.08 µM); 1.11 with KN-93 + Dasatinib (first compound 0.253 µM). Moreover, the relative viability with KN-93 + Dasatinib (first compound 2.53 µM) was determined as 1.03; with KN-93 + Dasatinib (first compound 8 µM) it was 0.673; with KN-93 + Olaparib (first compound 0.08 µM), 0.929; in the assay with KN-93 + Olaparib (first compound 0.253 µM) it was 1.06; in the assay with KN-93 + Olaparib (first compound 2.53 µM), 1.23; in the assay with KN-93 + Olaparib (first compound 8 µM), 0.956. The relative viability with KN-93 + Alpelisib (first compound 0.08 µM) was 0.999; with KN-93 + Alpelisib (first compound 0.253 µM), 1.04; with KN-93 + Alpelisib (first compound 2.53 µM), 1.01; with KN-93 + Alpelisib (first compound 8 µM) it was 0.94; in the assay with KN-93 (0.08 µM), 1; in the assay with KN-93 (0.253 µM), 1.11. Moreover, the relative viability with KN-93 (2.53 µM) is 1.01; in the assay with KN-93 (8 µM) it was 0.866.
